Results from patent US20090191193A1, “Aryl Vinyl Sulfides, Sulfones, Sulfoxides and Sulfonamides, Derivatives Thereof and Therapeutic Uses Thereof” (TEMPLE UNIVERSITY-OF THE COMMONWEALTH SYSTEM OF HIGHER …, priority 2006, published 2009).

What was measured:
DU145 (prostate cancer) = assay: Effect on tumor cell lines, viable cell count by trypan blue exclusion (Latham et al.): DU145; format: cell-based; details: DU145 prostate cancer cells, viable cell count 96 hours after treatment
Experimental: (§1) The effect of the compounds of the invention on tumor cells was determined by the assay described by Latham et al., Oncogene 12:827-837 (1996). Tumor cells DU145 (prostate cancer), K562 (chronic myelogenous leukaemia), BT20 (breast carcinoma), H157 (non small cell lung carcinoma), or DLD1 (colon carcinoma) were plated in 6-well dishes at a cell density of 1.0×10^5 cells per 35-mm^2 well. […] The total number of viable cells was determined 96 hours later by trypsinizing the wells and counting the number of viable cells, as determined by trypan blue exclusion, using a hemacytometer. Normal HFL cells were treated with the same compounds under the same conditions of concentration and time.

[1] = test system: K562 (chronic myelogenous leukaemia); assay: Effect on tumor cell lines, viable cell count by trypan blue exclusion (Latham et al.): K562; format: cell-based; details: K562 chronic myelogenous leukaemia cells, viable cell count 96 hours after treatment
Experimental: as §1

For `COc1ccc(CS(=O)(=O)/C(C#N)=C/c2ccc3[nH]c(=O)oc3c2)cc1` [Example 23, (E)-2-[(4-methoxyphenyl)methanesulfonyl]-3-(2-benzoxazolon-6-yl)acrylonitrile], the melting point was 208 to 210 °C and the IC50 (DU145 (prostate cancer); Homo sapiens, DU-145, 96 h) was 50 µM.

`N#C/C(=C\c1ccc(F)cc1F)S(=O)(=O)Cc1ccc(Br)cc1` [Example 4] showed a melting point of 146 to 148 °C.

For `N#C/C(=C\c1ccc(-c2ccccc2)cc1)S(=O)(=O)Cc1ccc(Cl)cc1` [Example 67], the IC50 [1] was > 100 µM and the IC50 (DU145 (prostate cancer)) was > 100 µM.

With `Cc1ccsc1/C=C(\C#N)S(=O)(=O)Cc1ccc(Cl)cc1` [Example 120] the IC50 [1] was 25 to 50 µM and the IC50 (DU145 (prostate cancer)) was 50 to 100 µM.

`N#C/C(=C\c1c(F)c(F)c(F)c(F)c1F)S(=O)(=O)Cc1ccc(F)cc1` [Example 33] showed a melting point of 156 to 158 °C and an IC50 (DU145 (prostate cancer); Homo sapiens, DU-145, 96 h) of 2.5 µM.

`N#C/C(=C\c1ccccc1OC(F)F)S(=O)(=O)Cc1ccc(Br)cc1` [Example 14] gave a melting point of 204 to 206 °C.

For `CSc1ccc(/C=C(\C#N)S(=O)(=O)Cc2ccc(Cl)cc2Cl)cc1` [Example 76], the IC50 [1] was 50 to 100 µM and the IC50 (DU145 (prostate cancer)) was 50 to 100 µM.

For `COc1ccc(CS(=O)(=O)/C(C#N)=C/c2ccc(C#N)cc2F)cc1` [Example 17], the melting point was 112 to 114 °C.

In the case of `COc1ccc(CS(=O)(=O)/C(C#N)=C/c2c(OC)cc(OC)cc2OC)cc1` [Example 1], the melting point is reported as 178 to 180 °C and the IC50 (DU145 (prostate cancer); Homo sapiens, DU-145, 96 h) is reported as 25 µM.

With `COc1ccc(CS(=O)(=O)/C(C#N)=C/c2c(F)c(F)c(F)c(F)c2F)cc1OC` [Example 32] the IC50 (DU145 (prostate cancer); Homo sapiens, DU-145, 96 h) was 10 µM.

In the case of `COc1ccc(CS(=O)(=O)/C(C#N)=C/c2ccc(OC)c(OC)c2)cc1` [Example 26], the melting point is reported as 156 to 158 °C.

With `COc1ccc(NS(=O)(=O)/C(C#N)=C/c2cc(Cl)cc(Cl)c2Cl)cc1` [Example 294] the melting point was 180 to 181 °C and the IC50 ([1]; Homo sapiens, K562, 96 h) was < 1 µM.

`COc1ccc(CS(=O)(=O)/C(C#N)=C/c2ccc(O)c(O)c2)cc1OC` [Example 28] gave a melting point of 196 to 198 °C.

`COc1ccc(S(=O)(=O)/C(=C/c2ccc(F)cc2)C(N)=O)cc1` [Example 181] gave a melting point of 154 to 156 °C.

Compound `N#C/C(=C\c1ccc(O)c(O)c1)S(=O)(=O)Cc1ccc(Cl)cc1` [Example 24] has a melting point of 178 to 180 °C and an IC50 (DU145 (prostate cancer); Homo sapiens, DU-145, 96 h) of 10 µM.

With `COc1ccc(S(=O)(=O)/C(=C/c2c(OC)cc(OC)cc2OC)C(N)=O)cc1` [Example 182] the melting point was 172 to 175 °C.

For `COc1ccc(CS(=O)(=O)/C(C#N)=C/c2ccc3oc(=O)[nH]c3c2)cc1` [Example 22], the melting point was 210 to 212 °C and the IC50 (DU145 (prostate cancer); Homo sapiens, DU-145, 96 h) was 10 µM.

In the case of `COc1ccc(NS(=O)(=O)/C(C#N)=C/c2cc(OC)cc(OC)c2)cc1` [Example 201], the melting point is reported as 167 to 168 °C and the IC50 (DU145 (prostate cancer); Homo sapiens, DU-145, 96 h) is reported as > 100 µM.

In the case of `NC(=O)/C(=C\c1ccc(Br)cc1)S(=O)(=O)Cc1ccc(F)cc1` [Example 161], the melting point is reported as 199 to 200 °C.

In the case of `COc1cc(OC)c(/C=C(\C(N)=O)S(=O)(=O)Cc2ccc(Cl)cc2Cl)c(OC)c1` [Example 152], the melting point is reported as 201 to 204 °C.

In the case of `Cc1cc(C)cc(/C=C(\C(N)=O)S(=O)(=O)Cc2ccc(Cl)cc2)c1` [Example 163], the melting point is reported as 172 to 176 °C.

With `COc1ccc(CS(=O)(=O)/C(C#N)=C/c2ccoc2)cc1` [Example 12] the melting point was 150 to 153 °C.

For `COc1ccc(CS(=O)(=O)/C(C#N)=C/c2ccc(F)c([N+](=O)[O-])c2)cc1` [Example 3], the IC50 (DU145 (prostate cancer); Homo sapiens, DU-145, 96 h) was 50 µM.

For `COc1ccc(CS(=O)(=O)/C(C#N)=C/c2ccccc2OC)cc1` [Example 9], the melting point was 143 to 145 °C.

Compound `COc1ccc(/C=C(\C(N)=O)S(=O)(=O)Cc2ccc(Cl)cc2Cl)cc1O` [Example 154, (E)-2-[(2,4-dichlorophenyl)methanesulfonyl]-3-(3-hydroxy-4-methoxyphenyl)acrylamide] has a melting point of 185 to 189 °C.

Work on `NC(=O)/C(=C\c1cccc(Cl)c1Cl)S(=O)(=O)Cc1ccc(F)cc1` [Example 155] yielded a melting point of 188 to 193 °C.

`CCOc1ccc(/C=C(\C(N)=O)S(=O)(=O)Cc2ccc(F)cc2)cc1OC` [Example 164, (E)-2-[(4-fluorophenyl)methanesulfonyl]-3-(4-ethoxy-3-methoxyphenyl)acrylamide] showed a melting point of 197 to 202 °C.

Compound `CCOc1ccc(/C=C(\C(N)=O)S(=O)(=O)Cc2ccc(Cl)cc2Cl)cc1OC` [Example 168, (E)-2-[(2,4-dichlorophenyl)methanesulfonyl]-3-(4-ethoxy-3-methoxyphenyl)acrylamide] has a melting point of 245 to 247 °C.

`CC(=O)c1ccc(/C=C(\C(N)=O)S(=O)(=O)Cc2ccc(Cl)cc2Cl)cc1` [Example 167] gave a melting point of 207 to 210 °C.

`N#C/C(=C\c1ccc([N+](=O)[O-])cc1)S(=O)(=O)Cc1ccc(Br)cc1` [Example 31] showed a melting point of 138 to 142 °C.

With `NC(=O)/C(=C\c1cc(F)c(F)cc1F)S(=O)(=O)Cc1ccc(F)cc1` [Example 162] the melting point was 168 to 170 °C.

Compound `Cc1ccc(/C=C(\C(N)=O)S(=O)(=O)Cc2ccc(Cl)cc2Cl)cc1C` [Example 151] has a melting point of 193 to 196 °C.

For `NC(=O)/C(=C\c1ccc(Cl)cc1Cl)S(=O)(=O)Cc1ccc(Cl)cc1` [Example 165], the melting point was 206 to 210 °C.

Compound `NC(=O)/C(=C\c1ccc(Br)cc1)S(=O)(=O)Cc1ccc(Cl)cc1Cl` [Example 153] has a melting point of 195 to 196 °C.

In the case of `COc1ccc(CS(=O)(=O)/C(C#N)=C/c2ccc(F)cc2Cl)cc1` [Example 15], the melting point is reported as 138 to 140 °C and the IC50 (DU145 (prostate cancer); Homo sapiens, DU-145, 96 h) is reported as 25 µM.

For `COc1ccc(CS(=O)(=O)/C(C#N)=C/c2ccc3oc(=O)[nH]c3c2)cc1OC` [Example 30], the melting point was 174 to 176 °C and the IC50 (DU145 (prostate cancer); Homo sapiens, DU-145, 96 h) was 100 µM.

`CCOc1ccc(/C=C(\C(N)=O)S(=O)(=O)Cc2ccc([N+](=O)[O-])cc2)cc1OC` [Example 159, (E)-2-[(4-nitrophenyl)methanesulfonyl]-3-(4-ethoxy-3-methoxyphenyl)acrylamide] showed a melting point of 235 to 240 °C.

For `COc1cc(OC)c(/C=C(\[N+](=O)[O-])S(=O)(=O)c2ccc(Br)cc2)c(OC)c1` [Example 186], the melting point was 184 to 186 °C and the IC50 (DU145 (prostate cancer); Homo sapiens, DU-145, 96 h) was 25 µM.

`NC(=O)/C(=C\c1ccc(Cl)cc1Cl)S(=O)(=O)Cc1ccccc1Cl` [Example 156] gave a melting point of 158 to 164 °C.

With `COc1ccc(NS(=O)(=O)/C(C#N)=C/c2c(OC)cccc2OC)cc1` [Example 193] the melting point was 154 to 156 °C.

`Cc1ccc(C)c(/C=C(\C(N)=O)S(=O)(=O)Cc2ccc(Cl)cc2)c1` [Example 157] gave a melting point of 79 to 82 °C.

Compound `COc1ccc(CS(=O)(=O)/C(C#N)=C/c2ccc3c(c2)OCO3)cc1` [Example 27, (E)-2-[(4-methoxyphenyl)methanesulfonyl]-3-(1,3-benzodioxole-5-yl)acrylonitrile] has a melting point of 186 to 188 °C and an IC50 (DU145 (prostate cancer); Homo sapiens, DU-145, 96 h) of 100 µM.

Compound `COc1ccc(CS(=O)(=O)/C(C#N)=C/c2ccc(F)cc2)cc1` [Example 7] has a melting point of 171 to 173 °C and an IC50 (DU145 (prostate cancer); Homo sapiens, DU-145, 96 h) of 100 µM.

In the case of `COc1cc(OC)c(/C=C(\C#N)S(=O)(=O)Cc2ccc(OC)c([N+](=O)[O-])c2)c(OC)c1` [Example 34], the melting point is reported as 184 to 186 °C.

`COc1cc(OC)c(/C=C(\C(N)=O)S(=O)(=O)c2ccccc2)c(OC)c1` [Example 178] gave a melting point of 164 to 167 °C.

For `COc1ccc(CS(=O)(=O)/C(C#N)=C/c2ccsc2)cc1` [Example 13], the melting point was 142 to 144 °C.

`COc1cc(OC)c(/C=C(\[N+](=O)[O-])S(=O)(=O)c2ccccc2)c(OC)c1` [Example 187] showed a melting point of 176 to 180 °C.

`COc1cc(OC)c(/C=C(\[N+](=O)[O-])S(=O)(=O)c2ccc(C)cc2)c(OC)c1` [Example 185] gave a melting point of 192 to 194 °C and an IC50 (DU145 (prostate cancer); Homo sapiens, DU-145, 96 h) of 50 µM.

In the case of `COc1ccc(CS(=O)(=O)/C(C#N)=C/c2ccc(N)cc2)cc1` [Example 5], the melting point is reported as 140 to 142 °C and the IC50 (DU145 (prostate cancer); Homo sapiens, DU-145, 96 h) is reported as 75 µM.

`COc1ccc(CS(=O)(=O)/C(=C/c2c(OC)cc(OC)cc2OC)C(N)=O)cc1` [Example 171] gave a melting point of 168 to 171 °C.

`COc1ccc(CS(=O)(=O)/C(C#N)=C/c2ccc(F)cc2F)cc1` [Example 2] gave a melting point of 138 to 140 °C and an IC50 (DU145 (prostate cancer); Homo sapiens, DU-145, 96 h) of 100 µM.

Compound `COc1ccc(CS(=O)(=O)/C(C#N)=C/c2c(OC)cccc2OC)cc1` [Example 8] has a melting point of 108 to 110 °C and an IC50 (DU145 (prostate cancer); Homo sapiens, DU-145, 96 h) of 75 µM.

For `COc1ccc(CS(=O)(=O)/C(C#N)=C/c2ccc3[nH]c(=O)oc3c2)cc1OC` [Example 29], the IC50 (DU145 (prostate cancer); Homo sapiens, DU-145, 96 h) was 100 µM.

For `COc1ccc(CS(=O)(=O)/C(C#N)=C/c2ccc(F)c(N)c2)cc1` [Example 6], the melting point was 146 to 148 °C.

`NC(=O)/C(=C\c1cccc(Cl)c1Cl)S(=O)(=O)Cc1ccc([N+](=O)[O-])cc1` [Example 169] gave a melting point of 200 to 202 °C.

Compound `NC(=O)/C(=C\c1ccc(F)cc1Cl)S(=O)(=O)Cc1ccc(Cl)cc1` [Example 166] has a melting point of 194 to 199 °C.

In the case of `Cc1ccc(C)c(/C=C(\C(N)=O)S(=O)(=O)Cc2ccc(F)cc2)c1` [Example 160], the melting point is reported as 172 to 176 °C.

Work on `COc1ccc(CS(=O)(=O)/C(C#N)=C/c2ccc([N+](=O)[O-])cc2)cc1` [Example 10] yielded a melting point of 174 to 176 °C.

With `COc1ccc(NS(=O)(=O)/C(C#N)=C/c2ccc(C)c(C)c2)cc1` [Example 203] the melting point was 152 to 154 °C and the IC50 (DU145 (prostate cancer); Homo sapiens, DU-145, 96 h) was > 100 µM.

Compound `CCOc1ccc(/C=C(\C(N)=O)S(=O)(=O)Cc2ccc(Cl)cc2)cc1OC` [Example 158, (E)-2-[(4-chlorophenyl)methanesulfonyl]-3-(4-ethoxy-3-methoxyphenyl)acrylamide] has a melting point of 195 to 197 °C.

`COc1ccc(CS(=O)(=O)/C(C#N)=C/c2ccc(O)c(O)c2)cc1` [Example 25] showed a melting point of 144 to 146 °C and an IC50 (DU145 (prostate cancer); Homo sapiens, DU-145, 96 h) of 10 µM.
